In patent publication US11535597B2, “Photoreactive ligands and uses thereof” (The Scripps Research Institute, priority 2017, dated 2022):

System: proteins in HEK293T cells
Test: MS-based mapping of FFF probe-modified peptides (isoTOP, sites of labeling)
Format: binding, human
How it was run: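 Live cells treated with fragment probes (200-250 μM) in serum-free DMEM, with or without competitor ligands. Proteomes clicked to light/heavy biotin-TEV-azide, streptavidin-enriched, trypsin- then TEV-digested; probe-modified peptides identified by LC-MS/MS with any residue allowed as modified site, isoTOP ratios quantified by CIMAGE.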

C#CCCC1(CCC(=O)NC23CC4CC(CC(C4)C2)C3)N=N1 [probe 14, N-((3s,5s,7s)-Adamantan-1-yl)-3-(3-(but-3-yn-1-yl)-3H-diazirin-3-yl)propanamide] was tested, and the “Labeled Peptide of HLA-A HLAC class I histocompatibility antigen, A-2 alpha” value (Accession P01892, residues of probe-labeled peptide, family Uncategorized) was 46-59, the “Labeled Peptide of HMOX2 Heme oxygenase 2” value (Accession P30519 (r933 prints P03519), residues of probe-labeled peptide, family Enzymes) was 69-87 and the “Labeled Peptide of GHITM Growth hormone-inducible transmembrane protein” value (Accession Q9H3K2, residues of probe-labeled peptide, family Uncategorized) was 218-240. The “Labeled Peptide of GOLPH3 Golgi phophoprotein 3” value (Accession Q9H4A6, residues of probe-labeled peptide, family Adapter, Scaffolding, Modulator Proteins) was 75-90, the “Labeled Peptide of HAUS2 HAUS augmin-like complex subunit 2” value (Accession Q9NVX0, residues of probe-labeled peptide, family Adapter, Scaffolding, Modulator Proteins) was 173-189 and the “Labeled Peptide of FUBP1 Far upstream element-binding protein 1” value (Accession Q96AE4, residues of probe-labeled peptide, family Transcription factors, Regulators) was 593-620. The “Labeled Peptide of HAUS1 HAUS augmin-like complex subunit 1” value (Accession Q96CS2, residues of probe-labeled peptide, family Adapter, Scaffolding, Modulator Proteins) was 94-108, the “Labeled Peptide” value (GOLPH3 Golgi phosphoprotein 3, residues of probe-modified peptide) was 75-90 and the “Labeled Peptide” value (HLA-A HLA class I histocompatibility antigen, A-2 alpha, residues of probe-modified peptide) was 46-59. The “Labeled Peptide” value (HMOX2 Heme oxygenase 2, residues of probe-modified peptide) was 69-87, the “Labeled Peptide” value (LIPA Lysosomal acid lipase (P38571), residues of the probe-labeled peptide) was 255-270 and the “Labeled Peptide” value (MAN2B1 Lysosomal alpha-mannosidase (O00754), residues of the probe-labeled peptide) was 291-305. For the same compound, the “Labeled Peptide” value (MCFD2 (Q8NI22), residues of the probe-labeled peptide) was 103-126, the “Labeled Peptide” value (MSH2 (P43246), residues of the probe-labeled peptide) was 848-871 and the “Labeled Peptide” value (MT-ND2 (P03891), residues of the probe-labeled peptide) was 264-272. The “Labeled Peptide” value (NDUFS1 (P28331), residues of the probe-labeled peptide) was 312-325, the “Labeled Peptide” value (NUP160 (Q12769), residues of the probe-labeled peptide) was 638-661 and the “Labeled Peptide” value (NUP205 (Q92621), residues of the probe-labeled peptide) was 1235-1252. The “Labeled Peptide” value (NUP214 (P35658), residues of the probe-labeled peptide) was 770-783, the “Labeled Peptide” value (NUTF2 (P61970), residues of the probe-labeled peptide) was 91-106 and the “Labeled Peptide” value (NXN Nucleoredoxin (Q6DKJ4), residues of the probe-labeled peptide) was 384-403. The “Labeled Peptide” value (P07384 CAPN1 Calpain-1 catalytic subunit) was 175-193, the “Labeled Peptide (residues) of YWHAQ 14-3-3 protein theta” value (P27348, peptide TAFDEAIAELDTLNEDSYK, PDB 5IQP) was 194-212 and the “Labeled Peptide” value (P30519 HMOX2 Heme oxygenase 2) was 69-87. For the same compound, the “Labeled Peptide” value (P30520 ADSS Adenylosuccinate synthetase isozyme 2) was 431-441, the “Labeled Peptide (residues) of PPP1CC Serine/threonine-protein phosphatase PP1-gamma cat” value (P36873, peptide EIFLSQPILLELEAPLK, PDB 4UT2) was 44-60 and the “Labeled Peptide” value (P48729 CSNK1A1 Casein kinase I isoform alpha) was 84-106. The “Labeled Peptide (residues) of RAB7A Ras-related protein Rab-7a” value (P51149, peptide DEFLIQASPR, PDB 1YHN) was 104-113, the “Labeled Peptide” value (P67870 CSNK2B Casein kinase II subunit beta) was 112-134 and the “Labeled Peptide” value (PCNA (P12004), residues of the probe-labeled peptide) was 118-138. The “Labeled Peptide” value (Q8NI60 ADCK3 Chaperone activity of bc1 complex-like, mitochondr) was 277-295, the “Labeled Peptide” value (Q9H4A6 GOLPH3 Golgi phosphoprotein 3) was 75-90 and the “Labeled Peptide (residues) of RUVBL2 RuyB-like 2” value (Q9Y230, peptide ALESDMAPVLIMATNR, PDB 3UK6) was 315-330. For the same compound, the “Labeled Peptide” value (Q13867 BLMH Bleomycin hydrolase) was 111-124, the “Labeled Peptide” value (protein ADCK3 (Q8NI60), residues of probe-labeled peptide) was 277-295 and the “Labeled Peptide” value (protein ADCK3 Chaperone activity of bc1 complex-like, mitochondr, residues of probe-labeled peptide) was 277-295. For the same compound, the “Labeled Peptide” value (protein ADSS (P30520), residues of probe-labeled peptide) was 431-441, the “Labeled Peptide” value (protein ADSS Adenylosuccinate synthetase isozyme 2, residues of probe-labeled peptide) was 431-441 and the “Labeled Peptide” value (protein AGK (Q53H12), residues of probe-labeled peptide) was 283-304. The “Labeled Peptide” value (protein ALDH18A1 (P54886), residues of probe-labeled peptide) was 650-662, the “Labeled Peptide” value (protein ASNA1 (O43681), residues of probe-labeled peptide) was 131-153 and the “Labeled Peptide” value (protein ATP2A2 (P16615), residues of probe-labeled peptide) was 335-352. The “Labeled Peptide” value (protein ATP2B1 (P20020), residues of probe-labeled peptide) was 824-840, the “Labeled Peptide” value (protein ATP2B4 (P23634), residues of probe-labeled peptide) was 812-828 and the “Labeled Peptide” value (protein ATP5B (P06576), residues of probe-labeled peptide) was 407-422. For the same compound, the “Labeled Peptide” value (protein ATP6V1B2 (P21281), residues of probe-labeled peptide) was 437-457, the “Labeled Peptide” value (protein BLMH (Q13867), residues of probe-labeled peptide) was 111-124 and the “Labeled Peptide” value (protein BLMH Bleomycin hydrolase, residues of probe-labeled peptide) was 111-124. For the same compound, the “Labeled Peptide” value (protein CALM3 Calmodulin (P62158), residues of probe-labeled peptide) was 39-75, the “Labeled Peptide” value (protein CALM3 Calmodulin, residues of probe-labeled peptide) was 39-75 and the “Labeled Peptide” value (protein CAPN1 (P07384), residues of probe-labeled peptide) was 175-193. The “Labeled Peptide” value (protein CAPN1 Calpain-1 catalytic subunit, residues of probe-labeled peptide) was 175-193, the “Labeled Peptide” value (protein CCDCC51 (Q96ER9), residues of probe-labeled peptide) was 86-96 and the “Labeled Peptide” value (protein CLPB Caseinolytic peptidase B protein homolog (Q9H078), residues of probe-labeled peptide) was 630-650. The “Labeled Peptide” value (protein COX15 Cytochrome coxidase assembly protein COX15 homolo (Q7KZN9), residues of probe-labeled peptide) was 296-313, the “Labeled Peptide” value (protein CSNK1A1 Casein kinase I isoform alpha (P48729), residues of probe-labeled peptide) was 84-106 and the “Labeled Peptide” value (protein CSNK1A1 Casein kinase I isoform alpha, residues of probe-labeled peptide) was 84-106. For the same compound, the “Labeled Peptide” value (protein CSNK2B Casein kinase II subunit beta (P67870), residues of probe-labeled peptide) was 112-134, the “Labeled Peptide” value (protein CSNK2B Casein kinase II subunit beta, residues of probe-labeled peptide) was 112-134 and the “Labeled Peptide” value (protein DCAF7 DDB1- and CUL4-associated factor 7 (P61962), residues of probe-labeled peptide) was 82-96. For the same compound, the “Labeled Peptide” value (protein FAH Fumarylacetoacetase (P16930), residues of probe-labeled peptide) was 242-253, the “Labeled Peptide” value (protein FAM114A2 Protein FAM114A2 (Q9NRY5), residues of probe-labeled peptide) was 184-196 and the “Labeled Peptide” value (protein O94826 TOMM70A Mitochondrial import receptor subunit TOM70) was 475-494. The “Labeled Peptide” value (protein O96008 TOMM40 Mitochondrial import receptor subunit TOM40 homolog) was 278-293, the “Labeled Peptide” value (protein P05387 RPLP2 60S acidic ribosomal protein P2) was 50-61 and the “Labeled Peptide” value (protein P31948 STIP1 Stress-induced-phosphoprotein 1) was 416-429. For the same compound, the “Labeled Peptide” value (protein P46977 STT3A Dolichyl-diphosphooligosaccharide--protein glycosy) was 330-340, the “Labeled Peptide” value (protein PABPC1 Polyadenylate-binding protein 1, residues of the probe-labeled peptide) was 114-129 and the “Labeled Peptide” value (protein PCNA Proliferating cell nuclear antigen, residues of the probe-labeled peptide) was 118-138. For the same compound, the “Labeled Peptide” value (protein PCYOX1 Prenylcysteine oxidase 1 (Q9UHG3)) was 37-54, the “Labeled Peptide” value (protein PHB Prohibitin (P35232)) was 241-253 and the “Labeled Peptide” value (protein PLS3 Plastin-3 (P13797)) was 72-85. For the same compound, the “Labeled Peptide” value (protein PPP1CB Serine/threonine-protein phosphate PP1-alpha cat (P62140)) was 43-59, the “Labeled Peptide” value (protein PPP1CC Serine/threonine-protein phosphatase PP1-gamma cat, residues of the probe-labeled peptide) was 44-60 and the “Labeled Peptide” value (protein PPP1CC Serine/threonine-protein phosphate PP1-gamma cat (P36873)) was 44-60. For the same compound, the “Labeled Peptide” value (protein PRPF19 Pre-mRNA-processing factor 19 (Q9UMS4)) was 186-196, the “Labeled Peptide” value (protein PSMD3 26S proteasome non-ATPase regulatory subunit 3 (O43242)) was 426-440 and the “Labeled Peptide” value (protein PTBP1 Polypyrimidine tract-binding protein 1 (P26599)) was 219-238. The “Labeled Peptide” value (protein Q8NBX0 SCCPDH Saccharopine dehydrogenase-like oxidoreductase) was 145-167, the “Labeled Peptide” value (protein Q8TBP6 SLC25A40 Solute carrier family 25 member 40) was 136-152 and the “Labeled Peptide” value (protein Q8TCJ2 STT3B Dolichyl-diphosphooligosaccharide--protein glycosy) was 692-703. For the same compound, the “Labeled Peptide” value (protein Q9H2D1 SLC25A32 Mitochondrial folate transporter/carrier) was 118-145, the “Labeled Peptide” value (protein Q9H4I3 TRABD TraB domain-containing protein) was 235-253 and the “Labeled Peptide” value (protein Q9H061 TMEM126A Transmembrane protein 126A) was 85-105. For the same compound, the “Labeled Peptide” value (protein Q9NS69 TOMM22 Mitochondrial import receptor subunit TOM22 homolog) was 106-117, the “Labeled Peptide” value (protein Q9UBX3 SLC25A10 Mitochondrial dicarboxylate carrier) was 171-186 and the “Labeled Peptide” value (protein Q9Y230 RUVBL2 RuvB-like 2) was 315-330. For the same compound, the “Labeled Peptide” value (protein QIL1 Protein QIL1 (Q5XLP0)) was 15-36, the “Labeled Peptide” value (protein RAB7A Ras-related protein Rab-7a (P51149)) was 104-113 and the “Labeled Peptide” value (protein RAB7A Ras-related protein Rab-7a, residues of the probe-labeled peptide) was 104-113. For the same compound, the “Labeled Peptide” value (protein RABEPK Rab9 effector protein with kelch motifs (Q7Z6M1)) was 87-100, the “Labeled Peptide” value (protein RARS Arginine--tRNA ligase, cytoplasmic (P54136)) was 528-540 and the “Labeled Peptide” value (protein RARS Arginine--tRNA ligase, cytoplasmic, residues of the probe-labeled peptide) was 528-540. For the same compound, the “Labeled Peptide” value (protein RUVBL2 RuvB-like 2, residues of the probe-modified peptide) was 315-330, the “Labeled Peptide” value (protein TXNDC17 Thioredoxin domain-containing protein 17, residues of the probe-modified peptide) was 4-17 and the “Labeled Peptide” value (protein VPS33A Vacuolar protein sorting-associated protein 33A, residues of the probe-modified peptide) was 233-262. For the same compound, the “Labeled Peptide” value (protein YWHAQ 14-3-3 protein theta, residues of the probe-modified peptide) was 194-212, the “Labeled Peptide” value (residues of probe-labeled peptide on VDAC3 Voltage-dependent anion-slective channel protein, Accession # Q9Y277) was 164-174 and the “Labeled Peptide” value (residues of probe-labeled peptide on VMP1 Vacuole membrane protein 1, Accession # Q96GC9) was 214-243. For the same compound, the “Labeled Peptide” value (residues of probe-labeled peptide on VPS33A Vacuolar protein sorting-associated protein 33A, Accession # Q96AX1) was 233-262, the “Labeled Peptide” value (residues of probe-labeled peptide on VPS51 Vacuolar protein sorting-associated protein 51 hom, Accession # Q9UID3) was 742-763 and the “Labeled Peptide” value (residues of probe-labeled peptide on YWHAQ 14-3-3 protein theta, Accession # P27348) was 194-212.
